Patent US8003649B2 (AstraZeneca AB, priority 2007, dated 2011)

molecular target: T1, Androgen Receptor (AR) (Homo sapiens, UniProt P10275, T878A); assay: LNCaP Androgen Receptor Down-regulation Cell Assay (immunofluorescence end point); assay type: cell-based; conditions: LNCaP prostate carcinoma cells, compound incubation 20-22 hours, 50% reduction of the AR signal; read-out: Androgen Receptor Down-regulation Assay (a) IC50/μM
T1 construct: cell based immuno-fluorescence assay using the LNCaP prostate epithelial cell line; endogenous in cells; host or cells: LNCaP clone FGC (ATCC CRL-1740)
T1 sequence (P10275 1-920 T878A): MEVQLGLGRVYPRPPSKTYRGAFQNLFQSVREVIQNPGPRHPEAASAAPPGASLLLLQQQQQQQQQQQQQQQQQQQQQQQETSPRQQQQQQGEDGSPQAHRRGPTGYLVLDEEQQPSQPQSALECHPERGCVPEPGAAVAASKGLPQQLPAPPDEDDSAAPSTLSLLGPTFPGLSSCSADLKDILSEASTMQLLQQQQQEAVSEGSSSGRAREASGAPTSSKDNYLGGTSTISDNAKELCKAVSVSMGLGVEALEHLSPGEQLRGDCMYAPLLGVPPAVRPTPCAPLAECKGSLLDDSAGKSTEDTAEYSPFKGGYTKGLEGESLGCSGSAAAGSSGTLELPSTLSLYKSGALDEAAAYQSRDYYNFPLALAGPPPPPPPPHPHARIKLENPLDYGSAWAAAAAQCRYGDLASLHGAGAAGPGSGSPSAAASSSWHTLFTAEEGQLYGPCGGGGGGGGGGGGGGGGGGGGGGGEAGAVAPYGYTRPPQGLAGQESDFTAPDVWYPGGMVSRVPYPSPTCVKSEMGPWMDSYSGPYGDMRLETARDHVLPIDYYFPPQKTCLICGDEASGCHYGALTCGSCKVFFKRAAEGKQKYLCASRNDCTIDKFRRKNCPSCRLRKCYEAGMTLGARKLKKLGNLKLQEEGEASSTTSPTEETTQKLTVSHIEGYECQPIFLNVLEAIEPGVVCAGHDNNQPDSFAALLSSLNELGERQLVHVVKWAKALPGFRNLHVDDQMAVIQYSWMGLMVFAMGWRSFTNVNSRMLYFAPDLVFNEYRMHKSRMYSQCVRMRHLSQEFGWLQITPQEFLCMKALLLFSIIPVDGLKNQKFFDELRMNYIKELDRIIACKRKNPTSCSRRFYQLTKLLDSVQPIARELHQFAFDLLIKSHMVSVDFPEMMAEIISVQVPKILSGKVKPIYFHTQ
Experimental: The ability of compounds to reduce Androgen Receptor (AR) numbers was assessed in a cell based immuno-fluorescence assay using the LNCaP prostate epithelial cell line.
a) LNCaP Androgen Receptor Down-regulation Cell Assay
A 5 ml volume of Growth Medium was added to each flask (as above except that 5% (v/v) charcoal stripped FBS (HyClone Code no. SH30068.03) was included instead of 10% (v/v) FBS). Cells were syringed at least twice using a sterile 18G×1.5″ (1.2×40 mm) broad gauge needle and cell density was measured using a haemocytometer.
Test data reported herein was generated using two different compounds preparation and dosing methods. In method (1) a 10 mM compound stock solution in 100% (v/v) DMSO was serially diluted in 4-fold steps in 100% (v/v) DMSO using a Thermo Scientific Matrix SerialMate. The diluted compounds were then further diluted 1 in 30 in assay media using a Thermo Scientific Matrix PlateMate and a 10 μl aliquot of this dilution was dosed to cells manually using a multi-channel pipette. In method (2) starting with a 10 mM compound stock solution, the Labcyte Echo 550 was used to generate a compound concentration response set diluted in 30 μl of assay media. The Echo 550 is a liquid handler that uses acoustic technology to perform direct microplate-to-microplate transfers of DMSO compound solutions. The system can be programmed to transfer volumes as low as […] in multiple increments between microplates and in so doing generates a serial dilution of compound which is then back-filled to normalise the DMSO concentration across the dilution range. A 10 μl volume of diluted compound is then dosed to cells using a Thermo Scientific Matrix PlateMate.
Plates were incubated overnight at 37° C., 5% CO2. Wells were then dosed with compound prepared by one of the 2 methods above and further incubated for 20-22 hours at 37° C., 5% CO2. […] This fixative solution was removed and cells were washed with 250 μl of PBS/0.05% (v/v) Tween 20 (PBST) using an automated plate washer. This process was then repeated twice more.
Immunostaining was performed at room temperature. Cells were permeabilised by the addition of 35 μl of PBS containing 0.5% Tween 20 and incubated for 1 hour at room temperature. Permeabilisation solution was removed and cells were washed with 250 μl of PBST using an automated plate washer. This process was then repeated twice more. 35 μl of Blocking Solution (PBST containing 3% (w/v) Marvel dried skimmed milk (Nestle)) was added to each well and plates were incubated at room temperature for a minimum of 1 hour. […] Then this primary antibody solution was removed from the wells followed by 3×100 μl PBST washes using a plate washer. […] Henceforth, wherever possible, plates were protected from light exposure. The plates were incubated for 1 hour and then the secondary antibody solution was removed from the wells followed by 3×100 ul PBST washes using a plate washer. Then 50 μl of PBST was added to each well and plates were covered with a black plate seal and stored at 4° C. before being read. Plates were read within six hours of completing the immunostaining.
The Green Fluorescent AR-associated signal in each well was measured using an Acumen Explorer HTS Reader (TTP Labtech Ltd., Cambridge). […] The instrument is a laser-scanning fluorescence microplate cytometer which samples the well at regular intervals and uses threshold algorithms to identify all fluorescent intensities above the solution background without the need to generate and analyse an image. These fluorescent objects can be quantified and provide a measure of the AR levels in cells. Fluorescence dose response data obtained with each compound was exported into a suitable software package (such as Origin) to perform curve fitting analysis. Down-regulation of AR levels was expressed as an IC50 value.

| SMILES | DC50 |
| --- | --- |
| FC(F)(F)c1nnc2ccc(N3CCN(Cc4cscn4)CC3)nn12 [Example 61, 6-[4-(1,3-thiazol-4-ylmethyl)piperazin-1-yl]-3-(trifluoromethyl)-[1,2,4]triazolo[4,3-b]pyridazine] | 7.4 µM |
| FC(F)(F)c1nnc2ccc(N3CCN(Cc4cnc5ccccc5c4)CC3)nn12 [Example 64, 3-[[4-[3-(trifluoromethyl)[1,2,4]triazolo[4,3-b]pyridazin-6-yl]piperazin-1-yl]methyl]quinoline] | 2.5 µM |
| CS(=O)(=O)c1cccc(CN2CCN(c3ccc4nnc(C(F)(F)F)n4n3)CC2)c1 [Example 74, 6-[4-[(3-methylsulfonylphenyl)methyl]piperazin-1-yl]-3-(trifluoromethyl)-[1,2,4]triazolo[4,3-b]pyridazine] | 5.6 µM |
| COc1ccccc1CN1CCN(c2ccc3nnc(C(F)(F)F)n3n2)CC1 [Example 75, 6-[4-[(2-methoxyphenyl)methyl]piperazin-1-yl]-3-(trifluoromethyl)-[1,2,4]triazolo[4,3-b]pyridazine] | 2.3 µM |
| FC(F)(F)c1nnc2ccc(N3CCN(Cc4cccc5c4OCCO5)CC3)nn12 [Example 76, 6-[4-(2,3-dihydro-1,4-benzodioxin-5-ylmethyl)piperazin-1-yl]-3-(trifluoromethyl)-[1,2,4]triazolo[4,3-b]pyridazine] | 2.3 µM |
| FC(F)(F)c1nnc2ccc(N3CCN(Cc4ccco4)CC3)nn12 [Example 79, 6-[4-(furan-2-ylmethyl)piperazin-1-yl]-3-(trifluoromethyl)-[1,2,4]triazolo[4,3-b]pyridazine] | 2.4 µM |
| FC(F)(F)c1nnc2ccc(N3CCN(Cc4cccnc4)CC3)nn12 [Example 81, 6-[4-(pyridin-3-ylmethyl)piperazin-1-yl]-3-(trifluoromethyl)-[1,2,4]triazolo[4,3-b]pyridazine] | 7.2 µM |
| FC(F)(F)c1nnc2ccc(N3CCN(Cc4ccc[nH]4)CC3)nn12 [Example 83, 6-[4-(1H-pyrrol-2-ylmethyl)piperazin-1-yl]-3-(trifluoromethyl)-[1,2,4]triazolo[4,3-b]pyridazine] | 2.5 µM |
| FC(F)(F)c1nnc2ccc(N3CCN(Cc4ccc5c(c4)CCO5)CC3)nn12 [Example 84, 6-[4-(2,3-dihydro-1-benzofuran-5-ylmethyl)piperazin-1-yl]-3-(trifluoromethyl)-[1,2,4]triazolo[4,3-b]pyridazine] | 1.8 µM |
| Cn1cccc1CN1CCN(c2ccc3nnc(C(F)(F)F)n3n2)CC1 [Example 87, 6-[4-[(1-methylpyrrol-2-yl)methyl]piperazin-1-yl]-3-(trifluoromethyl)-[1,2,4]triazolo[4,3-b]pyridazine] | 5.2 µM |

Stronger by DC50, values ahead:

| DC50 | SMILES |
| --- | --- |
| 0.72 µM | FC(F)(F)c1nnc2ccc(N3CCN(Cc4ccccc4Cl)CC3)nn12 [Example 62, 6-[4-[(2-chlorophenyl)methyl]piperazin-1-yl]-3-(trifluoromethyl)-[1,2,4]triazolo[4,3-b]pyridazine] |
| 1.5 µM | FC(F)(F)c1nnc2ccc(N3CCN(Cc4cccc5cc[nH]c45)CC3)nn12 [Example 63, 6-[4-(1H-indol-7-ylmethyl)piperazin-1-yl]-3-(trifluoromethyl)-[1,2,4]triazolo[4,3-b]pyridazine] |
| 0.76 µM | FC(F)(F)c1nnc2ccc(N3CCN(Cc4cccc5cnccc45)CC3)nn12 [Example 65, 5-[[4-[3-(trifluoromethyl)-[1,2,4]triazolo[4,3-b]pyridazin-6-yl]piperazin-1-yl]methyl]isoquinoline] |
| 0.33 µM | FC(F)(F)c1nnc2ccc(N3CCN(Cc4cccc5ccccc45)CC3)nn12 [Example 66, 6-[4-(naphthalen-1-ylmethyl)piperazin-1-yl]-3-(trifluoromethyl)-[1,2,4]triazolo[4,3-b]pyridazine] |
| 1 µM | FC(F)(F)c1ccccc1CN1CCN(c2ccc3nnc(C(F)(F)F)n3n2)CC1 [Example 67, 3-(trifluoromethyl)-6-[4-[[2-(trifluoromethyl)phenyl]methyl]piperazin-1-yl]-[1,2,4]triazolo[4,3-b]pyridazine] |
| 1.4 µM | Cn1c(CN2CCN(c3ccc4nnc(C(F)(F)F)n4n3)CC2)cc2ccccc21 [Example 69, 6-[4-[(1-methylindol-2-yl)methyl]piperazin-1-yl]-3-(trifluoromethyl)-[1,2,4]triazolo[4,3-b]pyridazine] |
| 0.64 µM | FC(F)(F)c1nnc2ccc(N3CCN(Cc4cccs4)CC3)nn12 [Example 70, 6-[4-(thiophen-2-ylmethyl)piperazin-1-yl]-3-(trifluoromethyl)-[1,2,4]triazolo[4,3-b]pyridazine] |
| 1.4 µM | Cn1cc(CN2CCN(c3ccc4nnc(C(F)(F)F)n4n3)CC2)c2ccccc21 [Example 71, 6-[4-[(1-methylindol-3-yl)methyl]piperazin-1-yl]-3-(trifluoromethyl)-[1,2,4]triazolo[4,3-b]pyridazine] |
| 1 µM | Fc1ccccc1CN1CCN(c2ccc3nnc(C(F)(F)F)n3n2)CC1 [Example 72, 6-[4-[(2-fluorophenyl)methyl]piperazin-1-yl]-3-(trifluoromethyl)-[1,2,4]triazolo[4,3-b]pyridazine] |
| 1.4 µM | FC(F)(F)c1nnc2ccc(N3CCN(Cc4ccc5[nH]ccc5c4)CC3)nn12 [Example 77, 6-[4-(1H-indol-5-ylmethyl)piperazin-1-yl]-3-(trifluoromethyl)-[1,2,4]triazolo[4,3-b]pyridazine] |
| 1.6 µM | COc1cccc(CN2CCN(c3ccc4nnc(C(F)(F)F)n4n3)CC2)c1 [Example 82, 6-[4-[(3-methoxyphenyl)methyl]piperazin-1-yl]-3-(trifluoromethyl)-[1,2,4]triazolo[4,3-b]pyridazine] |
| 1.6 µM | FC(F)(F)c1nnc2ccc(N3CCN(Cc4ccc5c(c4)OCO5)CC3)nn12 [Example 85, 6-[4-(1,3-benzodioxol-5-ylmethyl)piperazin-1-yl]-3-(trifluoromethyl)-[1,2,4]triazolo[4,3-b]pyridazine] |
| 1.5 µM | FC(F)(F)c1nnc2ccc(N3CCN(Cc4ccc5c(c4)OCCO5)CC3)nn12 [Example 88, 6-[4-(2,3-dihydro-1,4-benzodioxin-6-ylmethyl)piperazin-1-yl]-3-(trifluoromethyl)-[1,2,4]triazolo[4,3-b]pyridazine] |
